Measured values: article PMC8097972 (Journal of neurochemistry, 2020)

How the values were obtained:
[1] = molecular target: Kv1.3 (Rattus norvegicus, UniProt P15384); test: Whole-cell patch-clamp inhibition of Kv1.3 in transfected HEK293 cells; assay type: cell-based; conditions: 10 nM; T0 vs T5 (225 s); two-way mixed-design ANOVA
[2] = test system: DIO mice; test: Intraperitoneal glucose tolerance test in obese mice; assay type: in vivo, mouse; conditions: day +13 after OB pump start, 12 h fasted, vs PBS; treatment p = 0.0146
[3] = test system: DIO mice; test: Indirect calorimetry; assay type: in vivo, mouse; conditions: +2 to +12, light and dark cycle; light p = 0.496, dark p = 0.2581
[4] = test system: mitral cells; conditions: cited from earlier work
[5] = test system: Kv1.3; conditions: ref Knaus et al. 1995; Fadool and Levitan 1998; cited from earlier work

Sequence of Kv1.3 (Rattus norvegicus, UniProt P15384) (P15384 whole entry): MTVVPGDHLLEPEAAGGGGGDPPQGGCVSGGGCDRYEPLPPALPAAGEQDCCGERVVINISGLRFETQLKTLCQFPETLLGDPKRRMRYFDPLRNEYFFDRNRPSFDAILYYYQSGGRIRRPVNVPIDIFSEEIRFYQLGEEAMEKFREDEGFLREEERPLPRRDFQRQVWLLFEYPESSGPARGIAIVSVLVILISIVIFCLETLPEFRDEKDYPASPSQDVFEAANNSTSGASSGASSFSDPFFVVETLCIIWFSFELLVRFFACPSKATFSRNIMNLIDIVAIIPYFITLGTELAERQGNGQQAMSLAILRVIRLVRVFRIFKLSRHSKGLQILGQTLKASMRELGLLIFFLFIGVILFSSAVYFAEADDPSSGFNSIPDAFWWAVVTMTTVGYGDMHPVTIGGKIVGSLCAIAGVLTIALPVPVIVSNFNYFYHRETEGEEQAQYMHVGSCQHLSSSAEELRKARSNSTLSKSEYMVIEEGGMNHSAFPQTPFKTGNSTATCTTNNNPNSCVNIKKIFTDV

## QDMgTx: HisMgTx conjugated to His-PIMA-ZW capped CdSe-ZnS QDs by metal-histidine self-assembly (TIINVKCTSPKQCLPPCKAQFGQSAGAKCMNGKCKCYPH; His tag; self-assembled on CdSe-ZnS quantum dots; UniProt P40755 1-39, looked up)
[1]
  change in Kv1.3 peak current amplitude (in words): significantly decreased Kv1.3 peak current amplitude
[2]
  glucose clearance (IPGTT): cleared glucose significantly faster than control animals
[3]
  energy expenditure (EE): no change in EE in either the light or dark cycle

## insulin
[4]; following diet-induced obesity, ref Fadool et al. 2011
  ability to increase mitral cell activity after diet-induced obesity: significantly reduced

## margatoxin (TIINVKCTSPKQCLPPCKAQFGQSAGAKCMNGKCKCYPH; UniProt P40755 1-39, looked up) [MgTx]
[5]
  koff (printed as a time): 2 h
  kon (in words): rather slow for a vestibule blocker
[4]; ref Mast and Fadool 2012, Thiebaud et al. 2016
  effect on mitral cell spike firing: increase the spike firing frequency and reduce the pause duration between AP trains, but have less effect on ISI
